Measurements published in US20230173084A1, “PEPTIDE-BASED SYNTHETIC CHLORIDE ION TRANSPORTERS” (Tavanta Therapeutics Hungary Incorporated, priority 2019, published 2023).

Experiments:
[1] = apoptosis/necrosis detection kit, effect on cell fate; assay type: cell-based; conditions: human; HEK-293 cells, 100 µM, 30 min; read-out: viable cells after the incubation
Procedure: (§1) To investigate the effect of compounds according to the invention on cell fate, an apoptosis/necrosis detection kit was used according to the manufacturer’s instruction (Abcam Cat. No.: ab176750). Briefly, HEK-293 cells were incubated with various concentrations of CPPs for 30 min at 37° C. Cells were then washed 3 times and were incubated in 200 µL of Assay Buffer and loaded with CytoCalcein 450, Nuclear Green and Apopxin Deep Red at room temperature for 30-60 min. Following this, cells were washed and imaged. Images were captured using a Zeiss LSM880 confocal microscope with different channels and wavelengths according to each dye: CytoCalcein 450 (Ex/Em = 405/450 nm), Nuclear Green (Ex/Em = 490/520 nm) and Apopxin Deep Red (Ex/Em = 630/660 nm). For each condition, five images were captured and the total number of cells were counted by two independent investigators. Results are visualized in % of total cell number (live/apoptotic/necrotic) (FIG. 1). […] However, the majority of cells survived the treatment.

HEK-293 cells = assay: as above; assay type: cell-based; conditions: for apoptotic cell death: 30 min; for necrotic cell death: 30 min incubation at 37° C.; for toxicity: even in 100 µM
Procedure: as §1

CFTR knockout mice = assay: severity of lung fibrosis in Cftr knockout mice, nebulized treatment; assay type: in vivo, mouse
Excerpt: To assess the effect of in vivo administrated Formula (II) on lung histology parameters, this Example use Cftr^tm1UncTg(FABPCFTR)1Jaw/J mice (Jackson Laboratory, Stock No: 002364). FABP-hCFTR-CFTR bitransgenic mice harbor the FABP-hCFTR transgene [rat fatty acid binding protein 2, intestinal promoter directing expression of a human cystic fibrosis transmembrane conductance regulator (ATP-binding cassette sub-family C, member 7) gene] and a targeted knock-out mutation of the cystic fibrosis transmembrane conductance regulator homolog gene (Cftr). The mice used in this study were 8-12 weeks old and weighted 20-25 grams in the case of wild type (WT) animals and 15-17 grams in the case of CFTR knockout animals, the gender ratio was 1:1 for all groups. Experiments were carried out with adherence to the NIH guidelines and the EU directive 2010/63/EU for the protection of animals used for scientific purposes. The study was authorized by the National Scientific Ethical Committee on Animal Experimentation under license number XXI./1540/2020. Formula (II) was dissolved in physiological saline in a concentration of 10 µM. Treated mice received 400 µL Formula (II) dissolved in physiological saline solution in 5 minutes in a nebulizer in continuous oxygen flow (2L/min). Control animals received physiological saline as vehicle. The mice were grouped into 4 treatment groups as follows: wild type control (Group 1), CFTR knockout control (Group 2), wild type treated (Group 3), CFTR knockout treated (Group 4). Treatment was performed daily for 4 weeks. At the end of the experiments, mice received terminal anesthesia and the lungs were removed. Lungs were fixed for histology and trichrome staining was performed to assess lung parenchyma density and lung fibrosis. Sections were digitalized and fibrosis was scored as follows. 1388×1038 resolution pictures were taken with 10x and 40x magnification objectives with Zeiss ICc3 camera. […] Positive pixels were counted as fibrosis, negative pixels were counted as tissue. […]

pancreatic organoids = assay: intracellular Cl- level (MQAE) in 3D pancreatic organoids; assay type: cell-based; conditions: 100 µM
Procedure: To assess the biological activity of CPPs changes of intracellular Cl^— level was measured by loading HEK-293 cells with 5 µM N-(Ethoxycarbonylmethyl)-6-Methoxyquinolinium Bromide (MQAE; ThermoFischer; Catalog number: E3101) for 30 min in the presence of 0.05% Pluronic F-127. Cells were bathed with Cl^— free external solution and treated with different concentrations of CPPs at 37° C. at the perfusion rate of 2-3 ml/min. Region of interests (ROIs) were determined by the xcellence softver (Olympus) and changes of Cl^— were determined by exciting the cells with an MT20 light source equipped with a 340/11 nm excitation filter. Excitation and emission wavelengths were separated by a 400 nm beam splitter and the emitted light was captured by a Hamamatsu ORCA- ER CCD camera. One measurement per second was obtained. During further analysis the fluorescence signals were normalized to the initial fluorescence intensity (F1/F0) and expressed as normalized MQAE fluorescence (FIG. 2). […] N: 4-5 independent experiments/each tested condition.
To test the Cl^— transporting capability of CPPs in primary 3D cells, organoids were loaded with MQAE as above described and bathed in standard HEPES buffered solution (FIG. 4.). […] N: 4-5 independent experiments/each tested condition.

SMILES	viability at 0.5 h, 100 µM [1] [%]	apoptotic cell death (HEK-293 cells; 10 µM)	apoptotic cell death (HEK-293 cells; 100 µM)	necrotic cell death (HEK-293 cells)	toxicity (HEK-293 cells)	body weight (CFTR knockout mice; all groups, 4 weeks of daily treatment)	adverse events during the treatment (CFTR knockout mice; mice, nebulized daily for 4 weeks)	clinical signs of toxicity (CFTR knockout mice; treated animals, nebulized daily for 4 weeks)	effect on the fluorescent increase after removal of extracellular Cl- (CFTR-mediated Cl- efflux) (pancreatic organoids)
CC[C@H](C)[C@H](NC(=O)[C@H](CCCCN)NC(=O)[C@@H](NC(=O)[C@H](CCC(N)=O)NC(=O)[C@H](CCCNC(=N)N)NC(=O)CCCCCNC(=S)Nc1cc(C(F)(F)F)cc(C(F)(F)F)c1)[C@@H](C)CC)C(=O)N[C@@H](Cc1c[nH]c2ccccc12)C(=O)N[C@@H](Cc1ccccc1)C(=O)N[C@@H](CCC(N)=O)C(=O)N[C@@H](CC(N)=O)C(=O)N[C@@H](CCCNC(=N)N)C(=O)N[C@@H](CCCNC(=N)N)C(=O)N[C@@H](CCSC)C(=O)N[C@@H](CCCCN)C(=O)N[C@@H](Cc1c[nH]c2ccccc12)C(=O)N[C@@H](CCCCN)C(=O)N[C@@H](CCCCN)C(N)=O [Formula (II)]	97.3	limited rate of apoptotic cell death	limited rate of apoptotic cell death	no necrotic cell death was observed	negligible toxicity	maintained their initial weights	no adverse events were observed	No clinical signs of toxicity were observed	
CC[C@H](C)[C@H](NC(=O)[C@H](CCCCN)NC(=O)[C@@H](NC(=O)[C@H](CCC(N)=O)NC(=O)[C@H](CCCNC(=N)N)NC(=O)c1ccc(N=C=S)cc1)[C@@H](C)CC)C(=O)N[C@@H](Cc1c[nH]c2ccccc12)C(=O)N[C@@H](Cc1ccccc1)C(=O)N[C@@H](CCC(N)=O)C(=O)N[C@@H](CC(N)=O)C(=O)N[C@@H](CCCNC(=N)N)C(=O)N[C@@H](CCCNC(=N)N)C(=O)N[C@@H](CCSC)C(=O)N[C@@H](CCCCN)C(=O)N[C@@H](Cc1c[nH]c2ccccc12)C(=O)N[C@@H](CCCCN)C(=O)N[C@@H](CCCCN)C(N)=O [Formula (III)]	97.3		limited rate of apoptotic cell death	no necrotic cell death was observed	negligible toxicity				
O=C(O)c1ccc(/C=C2\SC(=S)N(c3cccc(C(F)(F)F)c3)C2=O)cc1 [CFTRinh172]									almost completely abolished the fluorescent increase
